Measured values taken from PMC4192545, “Suramin Inhibits Hsp104 ATPase and Disaggregase Activity” (PLoS ONE, 2014).

Tests used:
[1] = target: T1, Hsp104^N728A (Saccharomyces cerevisiae, UniProt P31539, N728A); assay: ATPase assay, Hsp104^N728A; type: biochemical, yeast; details: read-out: Hsp104^N728A ATPase activity relative to uninhibited protein
T1 construct: made in house; host or cells: E. coli BL21-DE3 RIL
Description: (§1) Wild-type or mutant Hsp104 (0.25 µM monomer) in ATPase buffer (20 mM HEPES-KOH pH 7.4, 20 mM NaCl and 10 mM MgCl2) was incubated for 60 or 10 min at 25°C in the presence of ATP (1 mM) as noted. ATPase activity was assessed by the release of inorganic phosphate determined by using a malachite green phosphate detection kit (Innova).
(§2) Figure 7 Hsp104 variants respond differently to Suramin than Hsp104^WT. (A) Hsp104 variants (0.25 µM monomer) were incubated for 10 min with ATP (1 mM) and varying concentrations of Suramin. The amount of Pi produced was measured by absorbance at 635 nm. Absorbance values were normalized to the absorbance produced by each Hsp104 variant in the absence of inhibitor. Values represent mean ±S.D. (n = 6). (B) Urea-denatured firefly luciferase aggregates were incubated for 90 min at 25°C with Hsp104 variants (1 µM hexamer) plus 1∶1 mixtures of ATP and ATPγS (or ATP alone) and varying concentrations of Suramin. Luciferase reactivation was then determined and normalized to untreated disaggregase activity for each variant in the presence of ATPγS: ATP (or ATP alone). 1∶1 mixtures of ATP and ATPγS were used for Hsp104^WT and Hsp104^T317A, while ATP alone was used for Hsp104^A503V and Hsp104^N728A. Values represent mean ±S.D. (n = 6–12).

[2] = tested on: HAP (Hsp104 variant) with ClpP; assay: FITC-casein degradation (substrate translocation) assay; type: biochemical; details: 25°C
Description: FITC-casein (0.1 µM) was incubated with HAP (1 µM hexamer) and ClpP (21 µM monomer) at 25°C. ATP ([…]) and an ATP-regenerating system were included in all reactions. Varying concentrations of Suramin (0, 25, or 100 µM) were included as noted. We monitored degradation of FITC-casein by measuring fluorescence (excitation 490 nm, emission 520 nm) using a Tecan Safire^2 microplate reader (Tecan, Männedorf, Switzerland).
Next, we established that Suramin hampers substrate translocation by Hsp104 using an engineered Hsp104 variant, HAP, which anchors to the bacterial peptidase ClpP to form a novel proteolytic system. Thus, HAP translocates fluorescein isothiocyanate (FITC)-casein for degradation by ClpP. Fluorescence increases as FITC is released from degraded casein and can be used as a surrogate for substrate translocation. […] Note that both the unfolding and translocation activities appear less sensitive to Suramin than disaggregase activity ( Figures 3B , 4A and 4B ). Thus, disaggregation of protein aggregates makes more stringent demands on the Hsp104 hexamer than the unfolding or translocation of soluble substrates. Altogether, we have established that Suramin greatly decreases Hsp104 ATPase activity, drastically impairs its capacity to refold luciferase and hinders its substrate unfolding and translocation activities.

[3] = target: T2, Hsp104^T317A (Saccharomyces cerevisiae, UniProt P31539, T317A); assay: ATPase assay, Hsp104^T317A; type: biochemical, yeast; details: read-out: Hsp104^T317A ATPase activity relative to uninhibited protein
T2 construct: made in house; host or cells: E. coli BL21-DE3 RIL
T2 sequence (P31539 whole entry T317A): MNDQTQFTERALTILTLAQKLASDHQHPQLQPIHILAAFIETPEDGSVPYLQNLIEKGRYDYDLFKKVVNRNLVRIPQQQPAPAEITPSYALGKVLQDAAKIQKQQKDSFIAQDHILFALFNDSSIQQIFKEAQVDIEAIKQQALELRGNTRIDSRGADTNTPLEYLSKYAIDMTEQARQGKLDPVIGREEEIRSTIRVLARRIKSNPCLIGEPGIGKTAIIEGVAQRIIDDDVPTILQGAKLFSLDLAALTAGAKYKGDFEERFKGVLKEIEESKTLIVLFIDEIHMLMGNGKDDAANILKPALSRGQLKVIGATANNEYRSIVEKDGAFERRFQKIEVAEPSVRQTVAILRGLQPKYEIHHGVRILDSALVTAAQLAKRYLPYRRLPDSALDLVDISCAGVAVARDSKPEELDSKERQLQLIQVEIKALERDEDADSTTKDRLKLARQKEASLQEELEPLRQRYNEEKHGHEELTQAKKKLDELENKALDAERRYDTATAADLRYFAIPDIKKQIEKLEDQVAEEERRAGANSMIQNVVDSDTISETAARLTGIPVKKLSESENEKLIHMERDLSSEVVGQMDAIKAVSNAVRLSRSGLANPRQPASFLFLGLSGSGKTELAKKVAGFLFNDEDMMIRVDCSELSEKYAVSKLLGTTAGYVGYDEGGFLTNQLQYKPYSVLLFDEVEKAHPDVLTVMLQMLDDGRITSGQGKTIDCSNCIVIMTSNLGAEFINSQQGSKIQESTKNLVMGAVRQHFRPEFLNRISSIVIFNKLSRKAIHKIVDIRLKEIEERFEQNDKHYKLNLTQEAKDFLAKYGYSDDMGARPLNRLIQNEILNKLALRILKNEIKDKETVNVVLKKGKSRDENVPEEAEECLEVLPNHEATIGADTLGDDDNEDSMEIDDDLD
Description: as §1, §2

[4] = tested on: Δpdr5 yeast; assay: [PSI+] propagation in Δpdr5 yeast; type: cell-based; details: Suramin 100 µM, data not shown
[5] = target: T3, Hsp104 with Hsp70 and Hsp40 (Saccharomyces cerevisiae, UniProt P31539); assay: Luciferase reactivation with Hsp70, Hsp40 and Hsp104 plus ATP; type: biochemical; details: for Normalized Luciferase Refolding Activity: Figure 3D, 70/40/104 (Hsp70 1 µM, Hsp40 1 µM, ATP)
T3 construct: host or cells: E. coli BL21-DE3 RIL (Hsp104)
T3 sequence (P31539 whole entry): as the sequence (P31539 whole entry T317A) above, with A317T counted along it
Description: Luciferase reactivation was performed as described, [37]. To assemble aggregates, firefly luciferase (50 µM) in luciferase refolding buffer (LRB, 25 mM HEPES-KOH, 7.4, 150 mM KAOc, 10 mM MgAOc, 10 mM DTT) with 6 M urea was incubated at 30°C for 20 min. Luciferase was then rapidly diluted 100-fold into LRB, divided into 100 µL aliquots, snap frozen in liquid N2, and stored at −80°C. For reactivation assays, aggregated luciferase (50 nM) was incubated with Hsp104 (1 µM hexamer), plus 2.6 mM ATPγS, 2.6 mM ATP and an ATP regeneration system (1 mM creatine phosphate, 0.25 µM creatine kinase (Roche Applied Science)) for 90 minutes at 25°C. Luciferase assay system was purchased from Promega. Luciferase activity was assessed by luminescence measured on a Safire^2 microplate reader (Tecan, Männedorf, Switzerland). The half maximal inhibitory concentration (IC50) was calculating by fitting luciferase-refolding data at different Suramin concentrations with Prism (GraphPad Software, Inc., La Jolla, CA).
(A) Urea-denatured firefly luciferase aggregates were incubated for 90 min at 25°C with Hsp104 (1 µM hexamer) plus 1∶1 mixtures of ATP and ATPγS and varying concentrations of GdmCl. Luciferase reactivation was then determined and converted to % WT disaggregase activity in the presence of ATPγS: ATP. Values represent mean ±S.D. (n = 3–6). (B) Reactions were performed as in (A) except varying concentrations of Suramin were used. Values represent mean ±S.D. (n = 6–10). (C) Half maximal inhibitory concentration (IC50) for Suramin-mediated inhibition of Hsp104. IC50 was calculating by fitting luciferase-refolding data at different Suramin concentrations. (D) Reactions were performed as in (A) except that 1∶1 mixtures of ATP and ATPγS were replaced with Hsp70 (1 µM) and Hsp40 (1 µM) plus ATP. The Hsp104 alone condition (yellow bars) was carried out with 1∶1 mixtures of ATP and ATPγS as in (A). Each condition is normalized to the refolding activity in each corresponding condition in the absence of inhibitor.

T1 sequence (P31539 whole entry N728A): as the sequence (P31539 whole entry T317A) above, with A317T, N728A counted along it

Cc1ccc(C(=O)Nc2ccc(S(=O)(=O)O)c3cc(S(=O)(=O)O)cc(S(=O)(=O)O)c23)cc1NC(=O)c1cccc(NC(=O)Nc2cccc(C(=O)Nc3cc(C(=O)Nc4ccc(S(=O)(=O)O)c5cc(S(=O)(=O)O)cc(S(=O)(=O)O)c45)ccc3C)c2)c1 [Suramin]
activity at 100 µM [1]: ~75%
Effect on substrate translocation (FITC-casein degradation by HAP/ClpP) ([2]; Suramin 25 µM): permits translocation activity equivalent to that by untreated HAP in conjunction with ClpP
Effect on substrate translocation (FITC-casein degradation by HAP/ClpP) ([2]; Suramin 100 µM): completely abolished substrate translocation
activity at 100 µM [3]: ~65%
Effect on [PSI+] propagation [4]: impaired neither
Normalized Luciferase Refolding Activity ([5]; Suramin 25 µM): 0.12
Normalized Luciferase Refolding Activity ([5]; Suramin 100 µM): 0.03
Rescue of inhibition by Hsp70 and Hsp40 ([5]; disaggregation reaction with Hsp70 and Hsp40): not rescued by inclusion of Hsp70 and Hsp40
